Experimental data published in US9534008B2, “Small molecule compounds that control plant- and insect-pathogenic nematodes” (California Institute of Technology, priority 2011, dated 2017).
Entries after “also recorded” stand apart in the source; their conditions may differ.

Columns and labels:
C. elegans [1] = conditions: in vivo; cited from earlier work
C. elegans [2] = experiment: Aggregation assay; assay type: in vivo
Method: Aggregation behavior of worms was measured using assays reported in de Bono & Bargmann, Cell 94:679-89 (1998), which is hereby incorporated by reference in its entirety. Aggregation assays were conducted on standard NGM plates. Plates containing indole ascarosides were made by adding the indole ascaroside stock solution to the NGM media before they were poured onto the plates. These plates were dried at room temperature for 2 to 3 days. Control plates were treated similarly, except that ethanol solutions instead of icas solutions were added to the plates, corresponding to the amount of ethanol introduced via the icas solutions. Final ethanol concentrations of the plates were below 0.1% for all conditions. After drying, both control plates and plates containing indole ascarosides were seeded with 150 μl of an overnight culture of E. coli OP50 using a micropipette, and were allowed to dry for 2 days at room temperature. For “low worm density” experiments, 20 worms were placed onto the lawn and left at 20° C. for 3 hours. For “high worm density” experiments, approximately 120 worms were placed onto the bacterial lawn and left at 20° C. for 3 hours. Aggregation behavior was quantified as the number of animals that were in touch with two or more animals at greater than 50% of their body length.

Panagrellus redivivus = experiment: Ascaroside function (Table 12), Panagrellus redivivus; assay type: in vivo
Procedure, shortened: (§1)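 Individual ascarosides and ascaroside blends were given to the nematodes, and their effect on nematode behavior was scored. A very strong behavioral effect was rated "strong."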

S. feltiae = experiment: Ascaroside function (Table 12), S. feltiae; assay type: in vivo, Steinernema feltiae
Method: Various ascarosides and ascaroside blends were administered to various nematodes described below (Table 12). […] A very strong result of affecting nematode behavior is designated in the table as “strong.”

C. elegans [3] = conditions: in vivo; cited from earlier work; remark: listed apart in the source
[4] = system: C. elegans hermaphrodites and males; experiment: Spot attraction assay; assay type: in vivo
Method: The spot attraction assays were conducted according to a previously reported method (Pungaliya et al., PNAS 106:7708-13 (2009); Srinivasan et al., Nature 454:1115-18 (2008), which are hereby incorporated by reference in their entirety). For both C. elegans hermaphrodites and males, 50-60 worms were harvested daily at the fourth larval stage (L4) and stored segregatedly by sex at 20° C. overnight, to be used as young adults the following day. For the competition experiments, two conditions were used: 120 nM ascr#3 and 10 nM icas#3 (Condition 1), or 12 μM ascr#3 and 1 μM icas#3 (Condition 2) in water containing 10% ethanol. Aliquots were stored at −20° C. in 20 μL tubes. 10% ethanol in water was used as control.
Attraction assays with hbas#3 were conducted as previously reported (Srinivasan et al., Nature 454:1115-18 (2008); Pungaliya et al., Proc. Natl. Acad. Sci. U.S.A. 106:7708-13 (2009), which are hereby incorporated by reference in their entirety). For the attraction assays, 50-60 hermaphrodite worms were harvested daily at the early fourth larval stage (L4) and stored at 20° C. overnight to be used as young adults the following day. Hbas#3 was dissolved in water containing 10% ethanol. Aliquots were stored at −20° C. in 20 μL tubes. 10% ethanol in water was used as control.

C. elegans [5] = experiment: Ascaroside function (Table 12), C. elegans; assay type: in vivo, Caenorhabditis elegans; set-up: key to Attract Females/Herm. / Promote Dauer Formation / Attract Males: A very strong result of affecting nematode behavior is designated in the table as “strong.”
Procedure, shortened: as §1

P. redivivus females = experiment: Retention assay, P. redivivus females; conditions: in vivo
Method: OP50 E. coli was grown on a standard 5 cm agar plate (made with standard Nematode Growth Medium). The bacterial lawn was 16 mm in diameter and was grown overnight at 20° C. before being used in trials. Two 4 mm spots (0.6 μL) were placed on opposite sides of the bacterial lawn (using a transparent template to guide spot placement), and several minutes elapsed for the liquid to settle in before placing nematodes down on the assay. Recording began immediately upon worm placement. […]
Nematodes were isolated by gender at the L4 stage the day before being used in trials as developed adults. […] Trials were recorded for 20 minutes, and frames were collected for analysis at 1 frame per second. […]
A video camera attached to the microscope produced a digital video stream, which was then analyzed. The ratio of the time the average worm spent in each region of interest was calculated for every trial. […] Thus worm pixels were counted instead of whole worms, allowing fractions of a worm in the region of interest to be taken into account. It also eliminated the need for a shape-based worm identification algorithm, and allowed each frame to be analyzed independently. […] Thus, the ratio of worm-pixels to all pixels inside the region of interest can be calculated to produce the worm-occupancy ratio. […]

For C[C@H](CCC(=O)O)O[C@@H]1O[C@@H](C)[C@H](OC(=O)c2c[nH]c3ccccc23)C[C@H]1O [icas#9], the “aggregation in C. elegans” value (C. elegans [1]) is given as “aggregating stimulant”, the “active concentration window (hermaphrodite attraction and aggregation)” value (C. elegans [2]; in vivo) is given as “femtomolar to picomolar; also recorded: fM-pM” and the “aggregation of solitary and social hermaphrodites” value (C. elegans [2]; low worm density (20 worms per 5 cm plate)) is given as “increased aggregation”. For the same compound, the “Repel Females/Herm.” value (Panagrellus redivivus) was “icas#9”, the “Dispersal (of dauer larvae, infectious juveniles)” value (S. feltiae) was “icas#9” and the dauer-inducing activity (C. elegans [3]) was “moderate; also recorded: promote dauer entry”. The “shape of dauer response curve” value (C. elegans [3]) was “bell-shaped”, the “attraction of both C. elegans sexes” value ([4]; high concentrations, 1 μmol, N2 hermaphrodites and him-5 males) was “attractive; also recorded: attracted” and the attraction of males ([4]; low concentrations, males) was “but not males”. For the same compound, the “Attract Females/Herm.” value (C. elegans [5]) was “([strong])”, the “Promote Dauer Formation” value (C. elegans [5]) was “icas#9” and the “response of P. redivivus females” value (P. redivivus females) was “repealed”.
